Data from patent publication US12358915B2, “METTL3 inhibitory compounds” (STORM THERAPEUTICS LTD., priority 2019, dated 2025).
Where a name gives a salt, the structure may show the parent alone. Read-outs that look alike come from different tables or passages of the source.

Molecular target: T1, METTL3/14 (Homo sapiens, UniProt Q86U44)
T1 construct: The enzyme used was full-length his-tagged METTL3; His; made in house
Assay: METTL3/14 methyltransferase assay (METTL3_14 RFMS, RapidFire mass spectrometry);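 further: recombinant His-tagged METTL3 with FLAG-tagged METTL14 from baculovirus, SAH product quantified by mass spectrometry against isotope-labelled internal standards, 60 min at room temperature, scaled between no-RNA and DMSO-only wells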
Assay type: biochemical

[1] = 5 nM METTL3/14, 0.2 μM RNA substrate, 0.5 μM SAM, lower limit of the assay IC50=5 nM, Compounds 63-265, read-out: METTL3_14 RFMS IC50
[2] = 5 nM METTL3/14, 0.2 μM RNA substrate, 0.5 μM SAM, lower limit of the assay IC50=5 nM, Compounds 1-62, read-out: METTL3_14 RFMS IC50
[3] = 5 nM METTL3/14, 0.2 μM RNA substrate, 0.5 μM SAM, lower limit of the assay IC50=5 nM, Compounds 266-351, read-out: METTL3_14 RFMS IC50

T1 sequence (Q86U44 whole entry): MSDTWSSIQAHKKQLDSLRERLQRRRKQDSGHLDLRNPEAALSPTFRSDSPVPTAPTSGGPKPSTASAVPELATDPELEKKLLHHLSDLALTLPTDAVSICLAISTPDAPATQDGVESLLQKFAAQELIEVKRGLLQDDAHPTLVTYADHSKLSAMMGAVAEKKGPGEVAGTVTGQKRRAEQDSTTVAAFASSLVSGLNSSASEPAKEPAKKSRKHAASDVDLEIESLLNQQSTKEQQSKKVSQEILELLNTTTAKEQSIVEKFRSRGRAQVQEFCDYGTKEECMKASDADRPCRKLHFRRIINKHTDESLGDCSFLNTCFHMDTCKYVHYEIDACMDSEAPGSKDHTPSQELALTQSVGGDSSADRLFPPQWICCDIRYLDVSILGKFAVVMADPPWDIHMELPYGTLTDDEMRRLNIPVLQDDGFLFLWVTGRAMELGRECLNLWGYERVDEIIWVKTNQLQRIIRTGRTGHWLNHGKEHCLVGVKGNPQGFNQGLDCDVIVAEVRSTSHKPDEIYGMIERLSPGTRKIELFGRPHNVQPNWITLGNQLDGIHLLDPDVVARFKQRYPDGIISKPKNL
T1 sequence (Q9HCE5 whole entry partner): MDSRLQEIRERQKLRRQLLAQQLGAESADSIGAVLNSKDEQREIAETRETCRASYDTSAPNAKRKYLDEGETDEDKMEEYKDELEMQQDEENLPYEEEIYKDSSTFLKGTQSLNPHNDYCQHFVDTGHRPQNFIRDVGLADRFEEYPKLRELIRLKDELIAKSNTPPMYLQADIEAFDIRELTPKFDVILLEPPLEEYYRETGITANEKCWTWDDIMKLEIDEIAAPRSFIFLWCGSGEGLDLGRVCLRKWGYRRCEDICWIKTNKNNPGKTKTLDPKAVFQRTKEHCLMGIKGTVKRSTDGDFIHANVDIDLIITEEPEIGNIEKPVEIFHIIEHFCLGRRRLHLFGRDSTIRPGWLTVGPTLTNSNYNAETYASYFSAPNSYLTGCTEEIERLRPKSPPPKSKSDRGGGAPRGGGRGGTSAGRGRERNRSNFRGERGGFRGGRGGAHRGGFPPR
Experimental: The enzyme used was full-length his-tagged METTL3 co-expressed with full length FLAG-tagged METTL14 in a baculovirus expression system. […] After termination, plates were sealed, centrifuged and stored at 4° C. until analysis. […] Mass Spectrometry Analysis RNA methyltransferase activity was measured label free using the RapidFireTM mass spectrometry (RF/MS) platform. Stopped and stable assay plates were analyzed on the Agilent RF300 integrated autosampler/solid-phase extraction (SPE) system coupled to an ABSciex 4000 mass spectrometer for the generation of the product S-adenosyl homocysteine (SAH) and normalized to the ratio of signal of the two internal product standards, respectively. Solvent A was water containing 0.1% (v/v) TCA. Solvent B was acetonitrile/0.1% ammonium acetate (8:2, v/v). More specifically, plates were centrifuged at 4350 rpm for 10 min, samples were aspirated under vacuum for 600 ms, then loaded onto a C18 solid-phase extraction cartridge and washed for 3 s with solvent A at a flow rate of 1.5 mL/min. Retained product and internal standards were eluted with solvent B at a flow rate of 1 mL/min for 3 s and finally the cartridge was reequilibrated with solvent A for 500 ms.

SMILES	IC50 [1]	IC50 [2]	other results
O=C(NCc1cn2cc(CNCC3CC3)ccc2n1)c1cc(=O)n2ccccc2n1 [Compound 84, N-[(6-{[(cyclopropyl-methyl)amino]methyl}imidazo [1,2-a]pyridin-2-yl)methyl]-4-oxo-4H-pyrido [1,2-a]pyrimidine-2-carboxamide]	36.5 nM	–	–
Cn1cnc(CNc2ccc3nc(CNC(=O)c4cccc5[nH]ncc45)cn3c2)c1 [Compound 33, N-[(6-{[(1-methyl-1H-imidazol-4-yl)methyl]amino}imidazo[1,2a]pyridin-2-yl)methyl]-1H-indazole-4-carboxamide]	–	5870 nM	–
O=C(NCc1cn2cc(Br)ccc2n1)c1cccc2[nH]ncc12 [Compound 3, N-({6-bromoimidazo[1,2-a]pyridin-2-yl}methyl)-1H-indazole-4-carboxamide]	–	4660 nM	–
O=C(NCc1cn2ccccc2n1)c1cc(=O)c2ccccc2o1 [Compound 13]	–	4180 nM	–
O=C(NCc1cn2cc(F)ccc2n1)c1cccc2[nH]ncc12 [Compound 6, N-({6-fluoroimidazo[1,2-a]pyridin-2-yl}methyl)-1H-indazole-4-carboxamide]	–	9120 nM	–
NCCc1ccc2nc(CNC(=O)c3cc(=O)n4ccccc4n3)cn2c1 [Compound 63, N-{[6-(2-aminoethyl)imidazo[1,2-a]pyridin-2-yl]methyl}-4-oxo-4H-pyrido[1,2-a]pyrimidine-2-carboxamide]	299 nM	–	–
OCc1ccc2nc(Cn3cc(-c4cc(F)cc5[nH]ncc45)nn3)cn2c1 [Example 317, [2-[[4-(6-fluoro-1H-indazol-4-yl)triazol-1-yl]methyl]imidazo[1,2-a]pyridin-6-yl]methanol]	–	–	IC50 [3]: 462 nM
O=C(NCc1cn2cc(CNCc3ccccc3)ccc2n1)c1cc(=O)n2ccccc2n1 [Compound 54, N-({6-[(benzylamino)methyl]imidazo[1,2-a]pyridin-2-yl}methyl)-4-oxo-4H-pyrido[1,2-a]pyrimidine-2-carboxamide]	–	–	IC50 (primary enzyme screen, inhibition of RNA methyltransferase activity, lower limit of the assay is IC50=5 nM, read-out: IC50): 16 nM
N#Cc1ccc2nc(CNC(=O)c3cc(=O)n4ccccc4n3)cn2c1 [Compound 18, N-({6-cyanoimidazo[1,2-a]pyridin-2-yl}methyl)-4-oxo-4H-pyrido[1,2-a]pyrimidine-2-carboxamide]	–	1860 nM	–
O=C(NCc1cn2cc(CNCCO)ccc2n1)c1cc(=O)n2ccccc2n1 [Compound 52, N-[(6-{[(2-hydroxyethyl)amino]methyl}imidazo[1,2-a]pyridin-2-yl)methyl]-4-oxo-4H-pyrido[1,2-a]pyrimidine-2-carboxamide]	–	267 nM	–
CC(O)c1ccc2nc(CNC(=O)c3cccc4[nH]ncc34)cn2c1 (stereo not shown) [Compound 47, N-{[6-(1-hydroxyethyl)imidazo[1,2-a]pyridin-2-yl]methyl}-1H-indazole-4-carboxamide]	–	3980 nM	–
O=C(NCc1cn2cc(CNCc3cccc(C4CC4)c3)ccc2n1)c1cc(=O)n2ccccc2n1 [Compound 92, N-{[6-({[(3-cyclopropyl-phenyl)methyl]amino}methyl)imidazo[1,2-a]pyridin-2-yl]methyl}-4-oxo-4H-pyrido[1,2-a]pyrimidine-2-carboxamide]	112 nM	–	–
COc1cc(Br)cc2c1OCC(c1ccc3nc(CNC(=O)c4cc(=O)n5ccccc5n4)cn3c1)NC2 (stereo not shown) [Example 332]	–	–	IC50 [3]: 1700 nM
O=C(NCc1cn2cc(CNCC3CCCOC3)ccc2n1)c1cc(=O)n2ccccc2n1 (stereo not shown) [Compound 90, N-{[6-({[(oxan-3-yl)methyl]amino}methyl)imidazo [1,2-a]pyridin-2-yl]methyl}-4-oxo-4H-pyrido[1,2-a] pyrimidine-2-carboxamide]	79.2 nM	–	–
COc1ccc2nc(CNC(=O)c3cc(=O)n4ccccc4n3)cn2c1 [Compound 24, N-({6-methoxyimidazo[1,2-a]pyridin-2-yl}methyl)-4-oxo-4H-pyrido[1,2-a]pyrimidine-2-carboxamide]	–	6770 nM	–
O=C(NCc1cn2cc(CNCC(F)(F)F)ccc2n1)c1cccc2[nH]ncc12 [Compound 46, N-[(6-{[(2,2,2-trifluoroethyl)amino]methyl}imidazo[1,2-a]pyridin-yl)methyl]-1H-indazole-4-carboxamide]	–	2210 nM	–
Cc1ccc2nc(Cn3cnc(-c4cccc5[nH]ncc45)c3)cn2c1 [Example 329, 2-[[4-(1H-indazol-4-yl)imidazol-1-yl]methyl]-6-methyl-imidazo[1,2-a]pyridine formate]	–	–	IC50 [3]: 1640 nM
C=Cc1ccn2cc(CNC(=O)c3cc(=O)n4ccccc4n3)nc2c1 [Compound 60, N-({7-ethenylimidazo[1,2-a]pyridin-2-yl}methyl)-4-oxo-4H-pyrido[1,2-a]pyrimidine-2-carboxamide]	–	700 nM	–

Second part, led by results:

IC50 [1]	IC50 [2]	SMILES	other results
24.7 nM	–	O=C(NCc1cn2cc(CNCC3CCOC3)ccc2n1)c1cc(=O)n2ccccc2n1 (stereo not shown) [Compound 120, 4-oxo-N-{[6-({[(oxolan-3-yl)methyl]amino}methyl)imidazo[1,2-a]pyridin-2-yl]methyl}-4H-pyrido [1,2-a]pyrimidine-2-carboxamide]	–
1200 nM	–	O=C(NCc1cn2cc(CNCc3ccn(CC(F)(F)F)n3)ccc2n1)c1cc(=O)n2ccccc2n1 [Compound 105, 4-oxo-N-({6-[({[1-(2,2,2-trifluoroethyl)-1H-pyrazol-3-yl]methyl}amino)methyl]imidazo[1,2-a]pyridin-2-yl}methyl)-4H-pyrido[1,2-a] pyrimidine-2-carboxamide]	–
1070 nM	–	O=C(NCc1cn2cc(CNCC3CCCCC3)ccc2n1)c1cc(=O)c2cccc(Cl)c2o1 [Compound 185, 8-chloro-N-[(6-{[(cyclohexylmethyl)amino]methyl}imidazo[1,2-a]pyridin-2-yl)methyl]-4-oxo-4H-chromene-2-carboxamide]	–
–	1040 nM	O=Cc1ccc2nc(CNC(=O)c3cc(=O)n4ccccc4n3)cn2c1 [Example 49, N-[(6-formylimidazo[1,2-a]pyridin-2-yl)methyl]-4-oxo-pyrido[1,2-a]pyrimidine-2-carboxamide]	–
84.3 nM	–	O=C(NCc1cn2cc(CN3CCC(F)(F)CC3)ccc2n1)c1cc(=O)n2ccccc2n1 [Compound 129, N-({6-[(4,4-difluoropiperidin-1-yl)methyl]imidazo [1,2-a]pyridin-2-yl}methyl)-4-oxo-4H-pyrido[1,2-a]pyrimidine-2-carboxamide]	–
80.1 nM	–	O=C(NCc1cn2cc(CNCCC3CCCC3)ccc2n1)c1cc(=O)n2ccccc2n1 [Compound 163, N-[(6-{[(2-cyclopentylethyl)amino]methyl}imidazo[1,2-a]pyridin-2-yl)methyl]-4-oxo-4H-pyrido[1,2-a]pyrimidine-2-carboxamide]	–
4440 nM	–	OCc1ccc2nc(Cn3cc(-c4cncc5[nH]ncc45)nn3)cn2c1 [Example 257, {2-[(4-{1H-pyrazolo[3,4-c]pyridin-4-yl}-1H-1,2,3-triazol-1-yl)methyl]imidazo[1,2-a]pyridin-6-yl}methanol]	–
909 nM	–	Nc1ccc(C(=O)NCc2cn3cc(CNCC4CCCCC4)ccc3n2)cn1 [Compound 176, 6-amino-N-[(6-{[(cyclohexylmethyl)amino]methyl}imidazo[1,2-a]pyridin-2-yl)methyl] pyridine-3-carboxamide]	–
197 nM	–	CN(Cc1ccc2nc(CNC(=O)c3cc(=O)n4ccccc4n3)cn2c1)CC(C)(C)C [Compound 205, N-[(6-{[(2,2-dimethylpropyl) (methyl)amino]methyl}imidazo [1,2-a]pyridin-2-yl)methyl]-4-oxo-4H-pyrido [1,2-a]pyrimidine-2-carboxamide]	–
61.1 nM	–	CC(C)(F)CNCc1ccc2nc(CNC(=O)c3cc(=O)n4ccccc4n3)cn2c1 [Compound 202, N-[(6-{[(2-fluoro-2-methylpropyl)amino]methyl}imidazo[1,2-a]pyridin-2-yl)methyl]-4-oxo-4H-pyrido[1,2-a] pyrimidine-2-carboxamide]	–
48.8 nM	–	O=C(NCc1cn2cc(CN3CCCC(C(F)(F)F)C3)ccc2n1)c1cc(=O)n2ccccc2n1 (stereo not shown) [Compound 142, 4-oxo-N-[(6-{[3-(trifluoromethyl)piperidin-1-yl]methyl}imidazo [1,2-a]pyridin-2-yl)methyl]-4H-pyrido[1,2-a] pyrimidine-2-carboxamide]	–
84.8 nM	–	O=C(NCc1cn2cc(CNC3(C4CC4)CC3)ccc2n1)c1cc(=O)n2ccccc2n1 [Compound 197, N-({6-[({[1,1′-bi(cyclopropane)]-1-yl}amino)methyl]imidazo [1,2-a]pyridin-2-yl}methyl)-4-oxo-4H-pyrido [1,2-a]pyrimidine-2-carboxamide]	–
110 nM	–	O=C(NCc1cn2cc(CNC3CCOC3)ccc2n1)c1cc(=O)n2ccccc2n1 (stereo not shown) [Compound 122, 4-oxo-N-[(6-{[(oxolan-3-yl)amino]methyl}imidazo[1,2-a]pyridin-2-yl)methyl]-4H-pyrido[1,2-a] pyrimidine-2-carboxamide]	–
13 nM	–	CC(C)(C)CCNCc1ccc2nc(CNC(=O)c3cc(=O)n4ccccc4n3)cn2c1 [Compound 93, N-[(6-{[(3,3-dimethylbutyl)amino]methyl}imidazo[1,2-a]pyridin-2-yl)methyl]-4-oxo-4H-pyrido[1,2-a] pyrimidine-2-carboxamide]	–
214 nM	–	O=C(NCc1cn2cc(CNCC3CCCCC3)ccc2n1)c1cc(=O)n2c(n1)CCCC2 [Compound 175, N-[(6-{[(cyclohexylmethyl)amino]methyl}imidazo[1,2-a]pyridin-2-yl)methyl]-4-oxo-4H,6H,7H,8H, 9H-pyrido[1,2-a]pyrimidine-2-carboxamide]	–
247 nM	–	O=C(NCc1cn2cc(CN3CCCCC3)ccc2n1)c1cc(=O)c2ccccc2o1 [Compound 219, 4-oxo-N-({6-[(piperidin-1-yl)methyl]imidazo[1,2-a]pyridin-2-yl}methyl)-4H-chromene-2-carboxamide]	–
